Test results: patent US20210062177A1, “Alginate Lyase” (Ocean University of China, priority 2019, published 2021)
Like-named read-outs stand apart in the source and are kept apart here.

Key:
ScCD6 = assay: Effects of metal ions and chemical reagents on ScCD6 enzyme activity; type: biochemical, Streptomyces coelicolor A3(2); details: ScCD6 activity with metal ion/chemical reagent; for Relative enzyme activity %: control = 100.00
Experimental: (§1) Using 0.3% (w/v) sodium alginate as the substrate, in a 200 μL reaction system, after reaction for 20 min and boiling 2 min for inactivating, DNS method was used to determine the content of reducing sugar in the product to characterize the enzyme activity.
(§2) To determine the temperature stability, ScCD6 was incubated at 30° C., 40° C., 50° C. and 60° C., and its residual enzyme activity was determined by sampling at different times. When determining the stabilities of the enzyme under different pH, the enzyme was stored in buffer solution with pH 7.0, 8.0, 9.0 and 10.0 at 4° C., and the residual enzyme activity was determined by sampling at different times. […] In order to investigate the substrate specificity of ScCD6, sodium alginate, poly M and poly G were used as substrates and reacted at 40° C. for 20 min. The content of reducing sugar was determined by DNS method.

[1] = ScCD6 enzyme activity, reducing sugar by DNS method (optimum temperature and pH); type: biochemical
Experimental: as §1, §2

[2] = Product analysis of polysaccharide degradation by ScCD6 (HPLC); type: biochemical
Experimental: Further, the concentration of substrate (sodium alginate, poly M, poly G) in the reaction can be 0.3% (w/v). An amount of added enzyme can be 0.6 U. A reaction can be carried out at 30° C., pH 7.0 for 12 hours. The obtained products can be used for HPLC tests.
Using 0.3% (w/v) sodium alginate, poly M and poly G substrates, in a 200 μL reaction system, 0.6 U alginate lyase ScCD6 was added and reacted at 30° C. and pH 7.0 for 12 hours. The reaction product was boiled for 10 min and centrifuged at 10,000 rpm for 10 min to remove the proteins and other impurities in the system. The supernatant was collected and passed through a 0.22 μm filter membrane for HPLC test. The HPLC conditions were as follows: Superdex™ 30 Increase 30/100 Gel column, 0.2 M NH4HCO3 as mobile phase, flow rate of 0.4 mL/min, room temperature (˜25° C.), loading sample volume of 100 μL, UV detection at 235 nm.

[3] = Experimental: as §1, §2
[4] = Substrate specificity of ScCD6 (DNS method); type: biochemical; details: sodium alginate, poly M, poly G; 40° C. for 20 min
Experimental: as §2

Molecule | effect on the enzyme activity (ScCD6) | Relative enzyme activity % (ScCD6) [%] | further results
[Ba+2] [Ba^2+] | promote the enzyme activity | 108.96 | 
[Ca+2] [Ca^2+] | little effects on the enzyme activity | 101.76 | 
[Co+2] [Co^2+] | promote the enzyme activity | 106.89 | 
[Cu+2] [Cu^2+] | inhibit the enzyme activity | 86.33 | 
[Fe+3] [Fe^3+] | promote the enzyme activity | 110.41 | 
[K+] [K^+] | little effects on the enzyme activity | 98.28 | 
[Mg+2] [Mg^2+] | inhibit the enzyme activity | 91.64 | 
[Mn+2] [Mn^2+] | promote the enzyme activity | 110.91 | 
O=C([O-])CN(CCN(CC(=O)[O-])CC(=O)O)CC(=O)O.[Na+].[Na+] [Na2EDTA] | lose the enzyme activity | 1.03 | 
[Na+] [Na^+] | little effects on the enzyme activity | 101.15 | 
[Ni+2] [Ni^2+] | inhibit the enzyme activity | 85.86 | 
CCCCCCCCCCCCOS(=O)(=O)[O-].[Na+] [SDS] | inhibit the enzyme activity | 92.02 | 
[Zn+2] [Zn^2+] | promote the enzyme activity | 109.04 | 
ScCD6: novel PL-6 family alginate lyase from Streptomyces coelicolor A3(2), 493 amino acids, SEQ ID NO: 1 (protein, Streptomyces coelicolor) MNRPRLSTYAAITVAAITIAALTTAASALASTGDTSSRTPSGNSTPQANATIVNVSSSTQLTTAMANAVAGQTIVLANGSYSIGKLNAKNGTSSAPITIMAAQQGKAIITGGQLEVLSSSYVTFSGLKWTNSNTLKITSSHHIRLTRNHFRLTESSSLKWIIIQGANSHHNRIDHNLFEEKHQLGNFITIDGSSTQQSQYDLIDYNHFRNIGPRATNEMEAIRVGWSAISKSDGFTTVENNLFENCDGDPEIVSVKSNANTVRYNTFRTSQGSVSLRHGNRSQVHGNFFFGGGKTGTGGVRVYGQDHKIYNNHFEGLTGTGYDAALQLDGGDVDTSGALSSHWRVYRATAVHNTFVNNVSNIEIGANYSLAPVDSLVADNIVVGSSGKLFNELKMPKNMTYAGNIGWPTGSATIGITTGVRTVNPLLAKQGEVYRLGTGSPAVNTASGSYSFLADDMDGQSRSGTADVGADELSTGTVVHKPLNSADVGISAP |  |  | optimum pH ([1]; 50° C., pH 3.0-10.0, 0.3% (w/v) sodium alginate): 9.0; optimum reaction temperature ([1]; pH 7.0, temperature range of 30-100° C., 0.3% (w/v) sodium alginate): 50 °C; degradation of polysaccharides ([2]; 0.3% (w/v) sodium alginate, poly M, poly G, 0.6 U, 30° C., pH 7.0, 12 hours, HPLC): could degrade all three kinds of polysaccharides; mode of digestion ([2]; HPLC product analysis): endo-type alginate lyase; polymerization degree of unsaturated oligosaccharide products ([2]; degradation of sodium alginate): 2-8; unsaturated disaccharides as share of the total unsaturated oligosaccharide products ([2]; degradation of sodium alginate): about 70%; enzyme activity retained ([3]; 4° C. for 4 days at pH 7.0-10.0): 80%; enzyme activity retained ([3]; 30° C. for 24 hours): 80%; substrate specificity [4]: poly M specific alginate lyase
